# In US10829501B2 (BRISTOL-MYERS SQUIBB COMPANY, priority 2016, dated 2020):
# Counter-ions that a name gives are not always drawn.
# Biological target: ROCK2 (Homo sapiens, UniProt O75116)
# Assay: ROCK2 kinase inhibition assay (LABCHIP 3000 Reader, FITC peptide substrate);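 also: rho kinase reaction read by separating phosphorylated from unphosphorylated peptide on chip, with inhibition of kinase activity computed per concentration across a dose-response series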
# Settings: not given
# ROCK2, sequence (O75116 whole entry, species assumed): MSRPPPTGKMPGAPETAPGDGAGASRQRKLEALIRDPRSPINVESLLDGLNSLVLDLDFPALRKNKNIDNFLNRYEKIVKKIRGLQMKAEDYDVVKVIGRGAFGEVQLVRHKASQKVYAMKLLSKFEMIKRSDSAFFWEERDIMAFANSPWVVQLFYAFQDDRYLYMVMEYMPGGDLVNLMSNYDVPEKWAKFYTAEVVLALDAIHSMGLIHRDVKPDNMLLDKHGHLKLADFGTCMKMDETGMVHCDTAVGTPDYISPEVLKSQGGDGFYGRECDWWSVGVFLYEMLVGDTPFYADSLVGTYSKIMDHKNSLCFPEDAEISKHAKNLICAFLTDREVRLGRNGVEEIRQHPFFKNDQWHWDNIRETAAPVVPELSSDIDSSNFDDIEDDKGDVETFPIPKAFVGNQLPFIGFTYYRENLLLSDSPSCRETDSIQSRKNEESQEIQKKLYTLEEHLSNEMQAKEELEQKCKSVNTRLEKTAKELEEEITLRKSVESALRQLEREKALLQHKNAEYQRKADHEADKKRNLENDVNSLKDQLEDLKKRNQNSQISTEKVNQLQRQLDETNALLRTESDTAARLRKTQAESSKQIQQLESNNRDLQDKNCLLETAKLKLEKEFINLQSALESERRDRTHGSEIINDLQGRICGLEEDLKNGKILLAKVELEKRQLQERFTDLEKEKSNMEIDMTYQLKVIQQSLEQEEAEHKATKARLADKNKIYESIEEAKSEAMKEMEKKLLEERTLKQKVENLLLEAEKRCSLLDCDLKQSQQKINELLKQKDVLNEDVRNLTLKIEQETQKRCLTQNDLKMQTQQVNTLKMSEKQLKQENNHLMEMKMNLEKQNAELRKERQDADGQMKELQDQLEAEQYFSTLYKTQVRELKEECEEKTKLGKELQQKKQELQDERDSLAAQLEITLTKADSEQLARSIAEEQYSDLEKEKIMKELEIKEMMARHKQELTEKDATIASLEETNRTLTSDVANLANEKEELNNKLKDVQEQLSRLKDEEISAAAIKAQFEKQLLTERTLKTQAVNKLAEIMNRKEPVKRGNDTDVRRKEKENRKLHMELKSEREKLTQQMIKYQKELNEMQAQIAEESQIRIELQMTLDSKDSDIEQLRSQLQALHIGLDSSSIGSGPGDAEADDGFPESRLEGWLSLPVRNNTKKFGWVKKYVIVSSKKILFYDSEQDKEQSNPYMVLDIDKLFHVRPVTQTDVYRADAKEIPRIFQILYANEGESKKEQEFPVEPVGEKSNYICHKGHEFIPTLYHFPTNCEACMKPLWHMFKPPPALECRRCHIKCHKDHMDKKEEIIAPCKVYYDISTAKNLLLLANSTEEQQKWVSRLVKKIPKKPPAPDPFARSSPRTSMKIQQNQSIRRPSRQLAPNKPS
row,Compound,IC50 [nM]
1,"COc1cc(C(=O)N[C@H]2CC3(C2)C[C@H](Oc2ncccc2C(N)=O)C3)ccc1-n1cnc(C)c1 (stereo partly drawn) [Example 79, 2-((aR)-6-(3-methoxy-4-(4-methyl-1H-imidazol-1-yl)benzamido)spiro-[3.3]heptan-2-yl)oxy) nicotinamide, trifluoroacetate]",50 to 250
2,"NC(=O)c1cccnc1O[C@H]1CC2(C[C@H](NC(=O)c3cn4ccccc4n3)C2)C1 (stereo partly drawn) [Example 75, N-((aR)-6-((3-carbamoylpyridin-2-yl)oxy)spiro[3.3]-heptan-2-yl)imidazo[1,2-a] pyridine-2-carboxamide, trifluoroacetate]",250 to 2500
3,"NC(=O)c1ccccc1O[C@H]1CC2(C[C@H](NC(=O)c3cnn4cc(OCCC(F)(F)F)ccc34)C2)C1 (stereo partly drawn) [Example 33, N-[(aR)-6-(2-carbamoylphenoxy)spiro [3.3]heptan-2-yl]-6-(3,3,3-trifluoropropoxy) pyrazolo[1,5-a]pyridine-3-carboxamide]",< 5
4,"N#Cc1ccc2c(c1)CN(C(=O)NC1CC3(C1)CC(Oc1ncccc1C(N)=O)C3)C2 (stereo not drawn) [Example 13, N-(6-((3-carbamoylpyridin-2-yl)oxy)spiro[3.3]heptan-2-yl)-5-cyanoisoindoline-2-carboxamide]",50 to 250
5,"CC(C)(O)COc1ccc2c(C(=O)N[C@H]3CC4(C3)C[C@H](Oc3ncccc3C(N)=O)C4)nn(CC(C)(C)O)c2c1 (stereo partly drawn) [Example 127, N-((aR)-6-((3-carbamoylpyridin-2-yl)oxy)spiro[3.3]heptan-2-yl)-6-(2-hydroxy-2-methylpropoxy)-1-(2-hydroxy-2-methylpropyl)-1H-indazole-3-carboxamide, trifluoroacetate]",5 to 50
6,"[H][C@]1(Oc2ncccc2C(N)=O)C[C@@]2(C[C@H](NC(=O)c3cnn4c(C5CC5)c(OCC(C)(C)O)ccc34)C2)C1 (stereo partly drawn) [Example 42, N-((aR)-6-((3-carbamoylpyridin-2-yl)oxy)spiro[3.3]heptan-2-yl)-7-cyclopropyl-6-(2-hydroxy-2-methylpropoxy)pyrazolo[1,5-a]pyridine-3-carboxamide]",< 5
7,[H][C@]1(Oc2ncccc2C(N)=O)C[C@@]2(C[C@H](NC(=O)c3cc(Br)cc(OCCC(F)(F)F)c3)C2)C1 (stereo partly drawn) [Example 56],5 to 50
8,"NC(=O)c1cccnc1OC1CC2(CC(NC(=O)c3cnn4cc(OC(CF)CF)ccc34)C2)C1 (stereo not drawn) [Example 9, N-(6-((3-carbamoylpyridin-2-yl)oxy)spiro[3.3]heptan-2-yl)-6-((1,3-difluoropropan-2-yl)oxy)pyrazolo[1,5-a]pyridine-3-carboxamide]",5 to 50
9,"NC(=O)c1cccnc1O[C@H]1CC2(C[C@H](NC(=O)c3ccc4[nH]c(=O)c(=O)[nH]c4c3)C2)C1 (stereo partly drawn) [Example 151, N-((aR)-6-((3-carbamoylpyridin-2-yl)oxy)spiro[3.3]heptan-2-yl)-2,3-dioxo-1,2,3,4-tetrahydroquinoxaline-6-carboxamide, trifluoroacetate]",250 to 2500
10,"[H][C@]1(Oc2ncccc2C(N)=O)C[C@@]2(C[C@H](NC(=O)c3cnn4c(CCC(F)(F)F)c(OCC(C)(C)O)ccc34)C2)C1 (stereo partly drawn) [Example 43, N-((aR)-6-((3-carbamoylpyridin-2-yl)oxy)spiro[3.3]heptan-2-yl)-6-(2-hydroxy-2-methylpropoxy)-7-(3,3,3-trifluoropropyl)pyrazolo[1,5-a]pyridine-3-carboxamide]",< 5
11,"NC(=O)c1ccccc1OC1CC2(CC(NC(=O)c3cnn4c(C5CC5)c(OCCC(F)(F)F)ccc34)C2)C1 [Example 32, N-[(aR)-6-(2-carbamoylphenoxy)spiro [3.3]heptan-2-yl]-7-cyclopropyl-6-(3,3,3-trifluoropropoxy)pyrazolo [1,5-a]pyridine-3-carboxamide]",< 5
12,"NC(=O)c1cccnc1O[C@H]1CC2(C[C@H](NC(=O)c3ccc(-c4cccc(F)c4)cc3)C2)C1 (stereo partly drawn) [Example 162, 2-(((aR)-6-(3′-fluoro-[1,1′-biphenyl]-4-ylcarboxamido)spiro[3.3]heptan-2-yl)oxy)nicotinamide]",5 to 50
13,"N#Cc1cc(C(=O)N[C@H]2CC3(C2)C[C@H](Oc2ncccc2C(N)=O)C3)ccc1F (stereo partly drawn) [Example 156, 2-(((aR)-6-(3-cyano-4-fluorobenzamido)spiro[3.3]heptan-2-yl)oxy) nicotinamide]",50 to 250
14,"N#Cc1cc(F)cc(C(=O)N[C@H]2CC3(C2)C[C@H](Oc2ncccc2C(N)=O)C3)c1 (stereo partly drawn) [Example 157, 2-(((aR)-6-(3-cyano-5-fluorobenzamido)spiro[3.3]heptan-2-yl)oxy) nicotinamide]",50 to 250

# Now from value to compound:
row,IC50 [nM],Compound
1,5 to 50,"N#Cc1cc(C(=O)N[C@H]2CC3(C2)C[C@H](Oc2ncccc2C(N)=O)C3)cc(-c2c[nH]nc2C(F)(F)F)c1 (stereo partly drawn) [Example 193, 2-(((aR)-6-(3-cyano-5-(3-(trifluoromethyl)-1H-pyrazol-4-yl)benzamido)spiro[3.3]heptan-2-yl)oxy)nicotinamide, trifluoroacetate]"
2,< 5,"CC(C)(O)COc1ccc2c(C(=O)NC3CC4(C3)CC(Oc3cc(-c5cccc(S(C)(=O)=O)c5)ccc3C(N)=O)C4)cnn2c1 (stereo not drawn) [Example 284, N-(6-((4-carbamoyl-3′-(methylsulfonyl)-[1,1′-biphenyl]-3-yl)oxy)spiro[3.3]heptan-2-yl)-6-(2-hydroxy-2-methylpropoxy)pyrazolo[1,5-a]pyridine-3-carboxamide]"
3,250 to 2500,"Cc1nc(-c2ccccc2)oc1C(=O)N[C@H]1CC2(C1)C[C@H](Oc1ncccc1C(N)=O)C2 (stereo partly drawn) [Example 164, N-((aR)-6-((3-carbamoylpyridin-2-yl)oxy)spiro[3.3]heptan-2-yl)-4-methyl-2-phenyloxazole-5-carboxamide]"
4,5 to 50,"Cc1nn(-c2cccc(-c3ccc(C(N)=O)c(OC4CC5(CC(NC(=O)c6cnn7cc(OCC(C)(C)O)ccc67)C5)C4)c3)c2)c(N)c1C#N (stereo not drawn) [Example 246, N-(6-((3′-(5-amino-4-cyano-3-methyl-1H-pyrazol-1-yl)-4-carbamoyl-[1,1′-biphenyl]-3-yl)oxy)spiro[3.3]heptan-2-yl)-6-(2-hydroxy-2-methylpropoxy)pyrazolo[1,5-a]pyridine-3-carboxamide]"
5,5 to 50,"CC(C)(O)COc1ccc2c(C(=O)NC3CC4(C3)CC(Oc3cc(-c5ccncc5)ccc3C(N)=O)C4)cnn2c1 (stereo not drawn) [Example 225, N-(6-(2-carbamoyl-5-(pyridin-4-yl)phenoxy)spiro[3.3]heptan-2-yl)-6-(2-hydroxy-2-methylpropoxy)pyrazolo[1,5-a]pyridine-3-carboxamide]"
6,< 5,"[2H]C([2H])([2H])n1cc(-c2ccc3c(C(=O)N[C@H]4CC5(C4)C[C@H](Oc4ncccc4C(N)=O)C5)nnn3c2)cn1 (stereo partly drawn) [Example 363, N-((aR)-6-((3-carbamoylpyridin-2-yl)oxy)spiro[3.3]heptan-2-yl)-6-(1-(^2H3)methyl-1H-pyrazol-4-yl)-[1,2,3]triazolo[1,5-a]pyridine-3-carboxamide]"
7,5 to 50,"[H][C@]1(Oc2ncccc2C(N)=O)C[C@@]2(C[C@H](NC(=O)c3cnn4c(Br)c(OCC(C)(F)F)ccc34)C2)C1 (stereo partly drawn) [Example 307, 7-bromo-N-((aR)-6-((3-carbamoylpyridin-2-yl)oxy)spiro[3.3]heptan-2-yl)-6-(2,2-difluoropropoxy)pyrazolo[1,5-a]pyridine-3-carboxamide]"
8,< 5,"CC(C)(O)COc1ccc2c(C(=O)NC3CC4(C3)CC(Oc3cc(CCCN)ccc3C(N)=O)C4)cnn2c1 (stereo not drawn) [Example 300, N-(6-(5-(3-aminopropyl)-2-carbamoylphenoxy)spiro[3.3]heptan-2-yl)-6-(2-hydroxy-2-methylpropoxy)pyrazolo[1,5-a]pyridine-3-carboxamide]"
9,5 to 50,"CC(C)(O)Cn1cc(-c2ccc3c(C(=O)N[C@H]4CC5(C4)C[C@H](Oc4ncccc4C(N)=O)C5)nnn3c2)cn1 (stereo partly drawn) [Example 365, N-((aR)-6-((3-carbamoylpyridin-2-yl)oxy)spiro[3.3]heptan-2-yl)-6-(1-(2-hydroxy-2-methylpropyl)-1H-pyrazol-4-yl)-[1,2,3]triazolo[1,5-a]pyridine-3-carboxamide]"
10,50 to 250,"NC(=O)c1cccnc1OC1CC2(CC(NC(=O)c3cn(-c4ccccc4)nn3)C2)C1 [Example 389, N-[(aR)2-({6-(1-phenyl-1H-1,2,3-triazole)-4-carboxamido]spiro[3.3]heptan-2-yl}oxy)nicotinamide]"

# Same assay, conditions: read-out: ROCK2 Activity (ROCK2 IC50); 5 μM ATP, 1.5 μM peptide substrate, pH 7.5
row,Compound,IC50 [nM]
1,"NC(=O)c1cccnc1OC1CC2(CC(NC(=O)c3nc(C(F)F)n4cc(OCc5ccccc5)ccc34)C2)C1 [Example 435, 6-(benzyloxy)-N-((aR)-6-((3-carbamoylpyridin-2-yl)oxy)spiro[3.3]heptan-2-yl)-3-(difluoromethyl)imidazo[1,5-a]pyridine-1-carboxamide]",< 5
2,"Cc1nn(C)cc1-c1cc(C(=O)NC2CC3(C2)CC(Oc2ncccc2C(N)=O)C3)cc(C(F)(F)F)c1 [Example 448, 2-(((aR)-6-(3-(1,3-dimethyl-1H-pyrazol-4-yl)-5-(trifluoromethyl)benzamido)spiro[3.3]heptan-2-yl)oxy)nicotinamide]",< 5
3,"NC(=O)c1cccnc1OC1CC2(CC(NC(=O)c3cc(Br)cc(C(F)(F)F)c3)C2)C1 [Example 427, 2-(((aR)-6-(3-bromo-5-(trifluoromethyl)benzamido)spiro[3.3]heptan-2-yl)oxy)nicotinamide]",5 to 50
4,"CC(C)(CN)Oc1ccc2c(C(=O)NC3CC4(C3)CC(Oc3ncccc3C(N)=O)C4)nc(C(F)F)n2c1 [Example 443, 6-((1-amino-2-methylpropan-2-yl)oxy)-N-((aR)-6-((3-carbamoylpyridin-2-yl)oxy)spiro[3.3]heptan-2-yl)-3-(difluoromethyl)imidazo[1,5-a]pyridine-1-carboxamide]",250 to 2500
5,"NC(=O)c1cccnc1OC1CC2(CC(NC(=O)c3nc(C(F)(F)F)n4cc(OS(=O)(=O)C(F)(F)F)ccc34)C2)C1 [Example 432, 1-(((aR)-6-((3-carbamoylpyridin-2-yl)oxy)spiro[3.3]heptan-2-yl)carbamoyl)-3-(trifluoromethyl)imidazo[1,5-a]pyridin-6-yl Trifluoromethanesulfonate]",5 to 50
6,"NC(=O)c1cccnc1OC1CC2(CC(NC(=O)c3cc(N4CC5CC4CO5)cc(C(F)(F)F)c3)C2)C1 [Example 452, 2-(((aR)-6-(3-(2-oxa-5-azabicyclo[2.2.1]heptan-5-yl)-5-(trifluoromethyl)benzamido)spiro[3.3]heptan-2-yl)oxy)nicotinamide]",5 to 50
